Structures can show the parent of a compound that is named as a salt.

The data set is classed as physicochemical. Conditions: Log10(concentration in octanol phase/concentration in aqueous phase). The text has this: Incidentally, the octanol-water partition coefficient herein is obtained by adding a target component to be measured into a flask charged with n-octanol and an aqueous buffer of pH 7 or water, shaking the resultant, and performing calculation, in accordance with the following equation, based on active ingredient concentrations in respective phases. Octanol-water partition coefficient=Log10(concentration in octanol phase/concentration in aqueous phase)
As for `CC(C)CCCCCCCOC(=O)C(C)(C)C` [isodecyl neopentanoate], the water-octanol partition coefficient is 5.9.

Regarding `CC(C)CCCCCCOC(=O)CCCCCC(C)C` [isononyl isononanoate], the water-octanol partition coefficient came to 6.5.

Regarding `CCCCCCCCCCCCCC(=O)OC(C)C` [isopropyl myristate], the water-octanol partition coefficient is on record as 7.2.

In the case of `CC(C)CCCCCCCCCCOC(=O)CCCCCC(C)C` [isotridecyl isononanoate], the water-octanol partition coefficient amounted to 9.2.

Consider `CC12CC3CC(C)(C1)CC(N)(C3)C2` [memantine hydrochloride, reference compound], for which the water-octanol partition coefficient worked out at 0.3.

In turn, `CC(C)CCCCCC(=O)OCC(C)(C)COC(=O)CCCCCC(C)C` [neopentyl glycol diisononanoate] registered a water-octanol partition coefficient of 7.2.

Regarding `CCCCCCCCCCCCCC(=O)OCC(CCCCCCCC)CCCCCCCCCC` (centres unmarked) [octyldodecyl myristate], the water-octanol partition coefficient stood at 16.0.

On to `O.O.O.O.O.O=P([O-])(O)C(O)(Cc1cccnc1)P(=O)(O)O.O=P([O-])(O)C(O)(Cc1cccnc1)P(=O)(O)O.[Na+].[Na+]` [risedronate monosodium hemipentahydrate, reference compound], for which the water-octanol partition coefficient was −5.0.

`CC(C)CCCC(C)CCCC(C)CCCCC(C)CCCC(C)CCCC(C)C` (centres unmarked) [squalane] yielded a water-octanol partition coefficient of 14.7.

`CCCCC(CC)C(=O)OCC(COC(=O)C(CC)CCCC)OC(=O)C(CC)CCCC` (centres unmarked) [triethylhexanoin] came in with a water-octanol partition coefficient of 8.9.

As for `CCCc1nc(C)c2c(=O)[nH]c(-c3cc(S(=O)(=O)N4CCN(CC)CC4)ccc3OCC)nn12` [verdenafil hydrochloride hydrate, reference compound], the water-octanol partition coefficient is recorded as 0.0.

Values taken from patent US10130710B2 (priority 2014, dated 2018).
